Experiment [1] relates to effective bladder capacity. As to the kind of experiment: Cystometry test on guinea pigs with cut spinal cord. In kind it is in vivo. The following applies: guinea pig. The text has this:
(2) Cystometry Test on Guinea Pigs
The method used was according to the method proposed by JS. Peterson et al. (Peterson J S. et al., J. Pharmacol. Methods 21(1989): 231), to which minor modifications were made.
Guinea pigs were anesthetized with halothane and the tenth thoracic spinal cord was cut in each animal. Subsequently, both ureters were ligated and were cut on the kidney-side. Polyethylene catheters were inserted into the bladder to provide an injection pathway for physiological saline and a pathway for the measurement of intravesical pressure. Each animal was restricted in a Ballman cage and was left for more than 2 hours. Subsequently, room-temperature saline was injected through the bladder catheter into the bladder at a rate of 6 mL/hr to conduct a cystometry test. Once the effective bladder capacity was stabilized, a test compound was intravenously administered into the jugular vein. The effective bladder capacity is defined as the volume of saline injected from one urination to the next. The effect of each test compound was determined as the increase in the average bladder volume, which was determined based on the average bladder volume measured 30 minutes prior to the administration of the test compound and the average bladder volume measured every 30 minutes after the administration of the test compound.

The target in the next experiment is T1, NK1 receptor (Cavia porcellus, UniProt P30547).
T1 construct: from tissue; host or cells: isolated guinea pig ileum
T1 sequence (P30547 whole entry): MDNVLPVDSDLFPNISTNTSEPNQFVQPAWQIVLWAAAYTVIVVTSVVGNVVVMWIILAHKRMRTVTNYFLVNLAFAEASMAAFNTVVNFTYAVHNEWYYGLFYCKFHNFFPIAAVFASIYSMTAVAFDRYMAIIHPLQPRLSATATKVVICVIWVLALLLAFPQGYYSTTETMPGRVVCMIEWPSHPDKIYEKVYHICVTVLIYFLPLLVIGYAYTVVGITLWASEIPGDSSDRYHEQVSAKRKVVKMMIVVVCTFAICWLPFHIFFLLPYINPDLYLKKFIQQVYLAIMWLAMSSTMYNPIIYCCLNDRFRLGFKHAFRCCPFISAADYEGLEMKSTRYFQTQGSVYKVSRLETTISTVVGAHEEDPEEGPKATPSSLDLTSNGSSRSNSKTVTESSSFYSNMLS
As to the kind of experiment: Test for NK1 receptor antagonist: substance P concentration-response in isolated guinea pig ileum, Schild analysis. In kind it is cell-based. The conditions noted are these: substance P as agonist, 10 min pretreatment, method of Schild. On the procedure:
(1) Test for NK1 Receptor Antagonist
The method used was according to the method proposed by S. Dion et al. (Dion et al., Life Sciences 41(1987): 2269), to which minor modifications were made.
Guinea pigs were stunned by a blow on the head and were exsanguinated from the carotid artery and ilea were isolated. The ileum was mounted in an organ bath containing Tyrode's solution which was maintained at 32° C. and gased with 95% O2 and 5% CO2. The ileum was subjected to a resting tension of 1-gram and allowed to equilibrate for 20 minutes before the experiment was started. As a control, a concentration-response curve for substance P in the absence of any of test compounds was used. The NK1 receptor antagonist activity of each test compound was determined by a concentration-response curve obtained by pretreating at least three concentrations of the test compound for 10 minutes and subsequently applying substance P in a cumulative manner. The Kb values were determined according to the method of Schild and the results are shown in Table 1 (Schild Brit. J. Pharmacol. 14(1959): 48).
The composition of the Tyrode's solution was as follows: NaCl=136.9, KCl=2.7, CaCl2.2H2O=2.5, MgCl2.6H2O=1.0, NaH2PO4.2H2O=0.4, NaHCO3=11.9, glucose=11.1 (mmol/L).

For `CC(=O)N1CCN(c2cc(-c3ccccc3C)c3c(n2)OCCCN(Cc2cc(C(F)(F)F)cc(C(F)(F)F)c2)C3=O)CC1` [Example 1, 9-(4-acetylpiperazine-1-yl)-5-[3,5-bis(trifluoromethyl)benzyl]-7-(2-methylphenyl)-6-oxo-2,3,4,5-tetrahydro-6H-pyrido[2,3-b][1,5]oxazocine], the “Increase in bladder capacity (%)” value in experiment [1] (0.3 mg/kg i.v.) turned out to be 32.2%. For the same molecule, the Kb on NK1 receptor was determined as 0.0888 nM.
In the case of `CC(=O)N1CCN(c2cc(-c3ccc(F)cc3)c3c(n2)OCCCN(Cc2cc(C(F)(F)F)cc(C(F)(F)F)c2)C3=O)CC1` [Example 2, 9-(4-acetylpiperazine-1-yl)-5-[3,5-bis(trifluoromethyl)benzyl]-7-(4-fluorophenyl)-6-oxo-2,3,4,5-tetrahydro-6H-pyrido[2,3-b][1,5]oxazocine], the Kb on NK1 receptor was 0.0847 nM.
The same measure, in the same setting: then `CC(=O)N1CCCN(c2cc(-c3ccccc3C)c3c(n2)OCCCN(Cc2cc(C(F)(F)F)cc(C(F)(F)F)c2)C3=O)CC1` [Example 6, 9-(4-acetylhomopiperazine-1-yl)-5-[3,5-bis(trifluoromethyl)benzyl]-7-(2-methylphenyl)-6-oxo-2,3,4,5-tetrahydro-6H-pyrido[2,3-b][1,5]oxazocine], with 0.294 nM.
For the molecule `Cc1ccc(-c2c3n(c(=O)c4ncccc24)CC[C@@H](C)CN(Cc2cc(C(F)(F)F)cc(C(F)(F)F)c2)C3=O)cc1` [TAK-637], the figures for the “Increase in bladder capacity (%)” value in experiment [1] (0.3 mg/kg i.v.), in experiment [1] (1 mg/kg i.v.) and in experiment [1] (3 mg/kg i.v.) were 12.0%, 23.8% and 20.5%, respectively. The Kb at NK1 receptor came out at 0.269 nM.

Values taken from patent US7026309B2, “Fused bicyclic pyridine derivative as tachykinin receptor antagonist” (Kyorin Pharmaceutical Co., Ltd., priority 2002, dated 2006).
